Where two headings read alike, the source gives them in different places.
Columns and labels:
[1] = biological target: CDK6/cycD3 (Homo sapiens, UniProt Q00534); test: CDK6 kinase activity inhibition assay (caliper mobility shift); type: biochemical; conditions: CDK6/cycD3 15 nM, ATP 800 μM; read-out: CDK6 kinase inhibitory activity (IC50)
Experimental: (§1) 1) CDK2, CDK4 and CDK6 Kinase Activity Inhibition Assay
(§2) In vitro enzymatic activity of the CDK isoforms CDK2/CycA2, CDK4/CycD3 and CDK6/cycD3 were measured using caliper mobility shift assay. Dissolve the compounds in DMSO and dilute them with corresponding kinase buffer (CDK2/CycA2 and CDK6/CycD3 were assayed with buffer conditions of 50 mM HEPES (pH 7.5), 10 mM MgCl2, 0.0015% Brij-35 and 2 mM dithiothreitol; CDK4/CycD3 was assayed with buffer condition of 20 mM HEPES (pH 7.5), 10 mM MgCl2, 0.01% Triton X-100 and 2 mM dithiothreitol). Add 5 μl of compound (10% DMSO) with 5 times the final concentration of the reaction to a 384-well plate. […] Collect conversion data on Caliper EZ Reader II (Caliper Life Sciences). Convert the conversion rate into inhibition rate data (% inhibition rate=(max−conversion rate)/(max−min)*100). […] Draw a curve with the concentration and inhibition rate of the compound as abscissa and ordinate, and use XLFit excel add-in version 4.3.1 software to fit the curve and calculate IC50.

[2] = biological target: CDK5/p35NCK (Homo sapiens, UniProt Q00535); test: CDK5 kinase activity inhibition assay (ADP-Glo); type: biochemical; conditions: read-out: CDK5 kinase inhibitory activity (IC50)
Sequence of CDK5/p35NCK (Q00535 whole entry): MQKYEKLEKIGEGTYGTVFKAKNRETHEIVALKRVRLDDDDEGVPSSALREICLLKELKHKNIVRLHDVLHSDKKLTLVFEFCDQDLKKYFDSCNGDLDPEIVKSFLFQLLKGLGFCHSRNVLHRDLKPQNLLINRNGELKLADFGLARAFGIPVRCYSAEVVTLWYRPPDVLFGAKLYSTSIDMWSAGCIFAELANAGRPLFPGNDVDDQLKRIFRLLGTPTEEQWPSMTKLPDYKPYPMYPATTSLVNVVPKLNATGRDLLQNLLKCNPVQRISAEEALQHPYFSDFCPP
Sequence of CDK5/p35NCK (Q15078 whole entry partner): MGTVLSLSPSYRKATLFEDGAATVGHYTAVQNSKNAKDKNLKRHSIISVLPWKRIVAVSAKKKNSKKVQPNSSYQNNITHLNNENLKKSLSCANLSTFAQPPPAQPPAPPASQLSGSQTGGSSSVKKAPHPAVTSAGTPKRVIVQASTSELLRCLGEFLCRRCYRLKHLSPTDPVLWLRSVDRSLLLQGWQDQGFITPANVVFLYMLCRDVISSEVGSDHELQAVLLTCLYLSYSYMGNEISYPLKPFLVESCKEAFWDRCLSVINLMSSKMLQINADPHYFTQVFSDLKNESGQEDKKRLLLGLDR
Experimental: (§3) 3) CDK5, CDK9 and CDK16 Kinase Activity Inhibition Assay
(§4) CDK5/p35NCK, CDK9/CycT1 and CDK16/CycY protein kinase activities were determined using the ADP-Glo Kinase Assay. Dilute the positive compound and the test compound (10 mM stock solution) 25-fold with 100% DMSO, make a 4-fold serial dilution in a 96-well dilution plate, and add 1 μL of the compound to 49 μL of kinase reaction buffer (1 mM Tris, 20 mM MgCl2, 0.10% BSA and 0.5 mM DTT) on a microplate shaker for 20 min. Transfer 2 μL of 2× kinase to the 384-well reaction plate, add 1 μL of the test compound to the 384-well reaction plate, centrifuge at 1000 rpm/min for 1 min, and incubate at 25° C. for 10 min. Transfer 1 μL of the 4× substrate mix to the 384-well reaction plate, centrifuge at 1000 rpm/min for 1 min, and incubate at 25° C. for 60 min. Transfer 4 μL of ADP-Glo to the 384-well reaction plate to centrifuge at 1000 rpm/min for 1 min, and incubate at 25° C. for 40 min. Transfer 8 μL of detection solution to the 384-well reaction plate to centrifuge at 1000 rpm/min for 1 min, and incubate at 25° C. for 40 min. The RLU (Relative luminescence unit) signal was read using a Biotek multifunctional plate reader. Signal intensity is used to characterize the degree of kinase activity. Compound inhibition rate data: % inhibition rate=[1−(compound mean RLU−positive control mean RLU)/(negative control mean RLU−positive control mean RLU)]*100. Taking the log value of the concentration as the X axis and the percentage inhibition rate as the Y axis, the log(inhibitor) vs. response-Variable slope of the analysis software GraphPad Prism 5 was used to fit the dose-response curve to obtain the IC50 value of each compound on the enzyme activity.

[3] = biological target: TRKA (Homo sapiens, UniProt P04629); test: TRKA kinase activity inhibition assay (caliper mobility shift); type: biochemical
Sequence of TRKA (P04629 33-796): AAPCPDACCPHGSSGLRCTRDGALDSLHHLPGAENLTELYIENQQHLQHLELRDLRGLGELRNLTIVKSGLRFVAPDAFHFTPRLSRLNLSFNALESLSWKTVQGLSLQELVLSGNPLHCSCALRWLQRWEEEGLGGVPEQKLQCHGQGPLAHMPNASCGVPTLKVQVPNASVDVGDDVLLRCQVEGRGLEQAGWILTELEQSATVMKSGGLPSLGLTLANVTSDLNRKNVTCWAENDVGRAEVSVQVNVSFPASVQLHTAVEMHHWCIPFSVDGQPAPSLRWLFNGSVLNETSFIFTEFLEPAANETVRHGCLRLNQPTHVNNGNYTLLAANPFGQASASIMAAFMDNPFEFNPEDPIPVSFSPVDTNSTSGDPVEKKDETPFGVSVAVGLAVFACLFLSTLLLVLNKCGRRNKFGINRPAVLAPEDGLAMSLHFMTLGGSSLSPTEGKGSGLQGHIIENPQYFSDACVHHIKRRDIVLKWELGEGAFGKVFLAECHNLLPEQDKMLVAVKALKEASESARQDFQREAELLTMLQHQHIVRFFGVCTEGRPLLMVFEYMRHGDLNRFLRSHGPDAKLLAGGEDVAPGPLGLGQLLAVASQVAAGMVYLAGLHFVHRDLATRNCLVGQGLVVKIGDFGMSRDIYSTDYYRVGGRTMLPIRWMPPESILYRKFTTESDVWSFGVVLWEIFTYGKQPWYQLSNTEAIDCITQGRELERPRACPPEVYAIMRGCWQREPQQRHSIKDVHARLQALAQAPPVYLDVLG
Experimental: 2) TRKA Kinase Activity Inhibition Assay
TRKA protein kinase activity was measured by caliper mobility shift assay. Compounds were dissolved in DMSO to make up 10 mM stock solutions. Prepare 1× kinase reaction buffer to serially dilute compounds. 250 nL 100× final concentration of the test compounds were transferred to destination plate 3573 by dispenser Echo 550. Prepare a 2.5× final concentration of kinase solution with 1× kinase buffer. Add 10 μL of 2.5× final kinase solution to compound wells and positive control wells; add 10 μL of 1× kinase buffer to negative control wells. Centrifuge at 1000 rpm for 30 s, shake and mix the reaction plate and incubate at room temperature for 10 min. Prepare a mixture of ATP and kinase substrate solution at 5/3× final concentration with 1× kinase buffer. The reaction was initiated by adding 15 μL of the mixed solution. Centrifuge the 384-well plate at 1000 rpm for 30 s, shake and mix well, and incubate at room temperature for the corresponding time. Add 30 μL of stop solution to stop the kinase reaction, centrifuge at 1000 rpm for 30 s, mix by shaking, and read the conversion rate data with Caliper EZ Reader. Convert conversion to inhibition data (% inhibition=(max DMSO well conversion−sample well conversion)/(max DMSO well conversion−min negative control conversion)*100). Wherein max refers to the conversion rate of the DMSO control, and min refers to the conversion rate of the non-enzymatic control. Draw a curve with the concentration and inhibition rate of the compound as abscissa and ordinate, and use XLFit excel add-in version 4.3.1 software to fit the curve and calculate IC50.

[4] = biological target: CDK9/CycT1 (Homo sapiens, UniProt P50750); test: CDK9 kinase activity inhibition assay (ADP-Glo); type: biochemical; conditions: read-out: CDK9 kinase inhibitory activity (IC50)
Sequence of CDK9/CycT1 (P50750 whole entry): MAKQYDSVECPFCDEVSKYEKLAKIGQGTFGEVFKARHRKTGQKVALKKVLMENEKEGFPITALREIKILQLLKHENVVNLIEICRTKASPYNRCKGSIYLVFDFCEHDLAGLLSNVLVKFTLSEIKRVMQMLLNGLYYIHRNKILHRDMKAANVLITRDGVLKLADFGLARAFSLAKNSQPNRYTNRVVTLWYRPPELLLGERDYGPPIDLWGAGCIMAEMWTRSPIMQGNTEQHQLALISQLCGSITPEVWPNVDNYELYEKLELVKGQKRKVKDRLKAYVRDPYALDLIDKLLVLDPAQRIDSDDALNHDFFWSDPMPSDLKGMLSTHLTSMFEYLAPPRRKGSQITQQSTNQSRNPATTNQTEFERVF
Sequence of CDK9/CycT1 (O60563 whole entry partner): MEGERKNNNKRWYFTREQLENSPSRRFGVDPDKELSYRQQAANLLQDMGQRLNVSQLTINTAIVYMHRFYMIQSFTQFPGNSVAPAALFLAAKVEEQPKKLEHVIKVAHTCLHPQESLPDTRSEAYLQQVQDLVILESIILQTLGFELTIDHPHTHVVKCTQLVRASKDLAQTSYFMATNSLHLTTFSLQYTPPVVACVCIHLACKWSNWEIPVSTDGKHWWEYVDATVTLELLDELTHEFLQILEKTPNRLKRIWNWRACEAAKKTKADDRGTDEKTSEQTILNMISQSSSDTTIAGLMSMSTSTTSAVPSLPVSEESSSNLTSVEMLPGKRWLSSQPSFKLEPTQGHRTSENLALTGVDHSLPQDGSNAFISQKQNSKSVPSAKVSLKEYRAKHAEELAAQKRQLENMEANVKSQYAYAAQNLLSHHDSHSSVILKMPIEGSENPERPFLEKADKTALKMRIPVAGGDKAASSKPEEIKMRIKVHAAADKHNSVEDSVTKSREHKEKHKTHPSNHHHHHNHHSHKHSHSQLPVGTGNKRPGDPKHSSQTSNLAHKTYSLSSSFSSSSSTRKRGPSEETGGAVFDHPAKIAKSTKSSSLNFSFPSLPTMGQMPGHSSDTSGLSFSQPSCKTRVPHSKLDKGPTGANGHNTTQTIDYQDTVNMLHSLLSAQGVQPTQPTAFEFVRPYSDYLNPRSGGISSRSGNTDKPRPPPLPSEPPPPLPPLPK
Experimental: as §3, §4

[5] = biological target: CDK4/CycD3 (Homo sapiens, UniProt P11802); test: CDK4 kinase activity inhibition assay (caliper mobility shift); type: biochemical; conditions: CDK4/CycD3 10 nM, ATP 221 μM; read-out: CDK4 kinase inhibitory activity (IC50)
Sequence of CDK4/CycD3 (P11802 whole entry): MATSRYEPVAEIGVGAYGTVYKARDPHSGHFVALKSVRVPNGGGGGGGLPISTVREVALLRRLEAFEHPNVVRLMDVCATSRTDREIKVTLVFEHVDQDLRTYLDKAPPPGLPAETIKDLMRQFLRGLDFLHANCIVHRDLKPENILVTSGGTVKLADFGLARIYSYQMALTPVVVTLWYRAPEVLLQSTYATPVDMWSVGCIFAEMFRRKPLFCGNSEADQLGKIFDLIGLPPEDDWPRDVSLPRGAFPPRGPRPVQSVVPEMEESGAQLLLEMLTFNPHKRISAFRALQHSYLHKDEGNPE
Sequence of CDK4/CycD3 (P30281 whole entry partner): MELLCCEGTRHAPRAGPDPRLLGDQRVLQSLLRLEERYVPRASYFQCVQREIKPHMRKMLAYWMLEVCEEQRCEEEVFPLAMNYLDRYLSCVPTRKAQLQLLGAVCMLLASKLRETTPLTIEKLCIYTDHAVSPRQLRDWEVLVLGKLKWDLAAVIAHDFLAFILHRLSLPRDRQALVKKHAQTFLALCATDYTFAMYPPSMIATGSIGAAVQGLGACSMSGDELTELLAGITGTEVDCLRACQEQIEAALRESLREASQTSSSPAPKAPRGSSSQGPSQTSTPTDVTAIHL
Experimental: as §1, §2

[6] = biological target: CDK16/CycY (Homo sapiens, UniProt Q00536); test: CDK16 kinase activity inhibition assay (ADP-Glo); type: biochemical; conditions: read-out: CDK16 kinase inhibitory activity (IC50)
Sequence of CDK16/CycY (Q00536 whole entry): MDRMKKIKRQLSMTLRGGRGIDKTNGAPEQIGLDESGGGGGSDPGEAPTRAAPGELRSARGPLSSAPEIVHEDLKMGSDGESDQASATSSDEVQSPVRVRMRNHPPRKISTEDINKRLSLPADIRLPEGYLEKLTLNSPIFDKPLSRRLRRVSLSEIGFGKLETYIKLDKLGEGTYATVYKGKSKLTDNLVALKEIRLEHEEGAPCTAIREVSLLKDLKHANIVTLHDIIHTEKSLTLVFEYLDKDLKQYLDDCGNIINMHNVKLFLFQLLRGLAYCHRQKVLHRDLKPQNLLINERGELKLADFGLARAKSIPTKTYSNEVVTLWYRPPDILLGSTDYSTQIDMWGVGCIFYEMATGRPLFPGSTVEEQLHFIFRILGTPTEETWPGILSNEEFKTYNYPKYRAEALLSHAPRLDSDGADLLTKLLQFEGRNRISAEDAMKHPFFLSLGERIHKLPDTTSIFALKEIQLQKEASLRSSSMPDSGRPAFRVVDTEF
Sequence of CDK16/CycY (Q8ND76 whole entry partner): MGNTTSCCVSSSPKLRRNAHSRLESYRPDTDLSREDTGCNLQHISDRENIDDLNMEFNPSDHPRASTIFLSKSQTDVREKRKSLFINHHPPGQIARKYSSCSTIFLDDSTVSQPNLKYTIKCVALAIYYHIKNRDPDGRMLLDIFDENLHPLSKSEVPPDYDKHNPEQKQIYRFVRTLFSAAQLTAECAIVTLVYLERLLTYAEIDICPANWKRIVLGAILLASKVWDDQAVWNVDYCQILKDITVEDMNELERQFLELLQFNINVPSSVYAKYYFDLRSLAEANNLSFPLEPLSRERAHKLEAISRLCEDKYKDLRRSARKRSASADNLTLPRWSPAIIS
Experimental: as §3, §4

[7] = Pharmacokinetic study in rats (intragastrical administration, plasma LC-MS/MS); conditions: male, SD, rat, po, 3 mg/kg
Experimental: (§5) Instruments: XEVO TQ-S LC/MS instrument produced by Waters. All measurement data is collected and processed by Masslynx V4.1 software, and the data is calculated and processed by Microsoft Excel. Using WinNonLin 8.0 software, the statistical moment method was used to calculate the pharmacokinetic parameters. Mainly include kinetic parameters Tmax, T1/2, Cmax, AUClast etc. Column: ACQUITY UPLC BEH C18 (2.1 mm×50 mm, 1.7 μm); column temperature 40° C.; mobile phase A is water (0.1% formic acid), mobile phase B is acetonitrile, flow rate is 0.350 ml/min, gradient elution is adopted, the elution gradient is 0.50 min: 10% B; 1.50 min: 10% B; 2.30 min: 95% B; 2.31 min: 10% B; 3.00 min: stop. Injection volume: 5 μL.
(§6) Animals: 3 male SD rats with a weight range of 200-220 g. After purchase, they will be kept in the laboratory of the Experimental Animal Center for 2 days and then used. They will be fasted for 12 hours predose and 4 hours after dosing. Drinking water is free during the test. After the rats were gavage, blood samples were taken according to the established time point.
(§7) Solvent: 0.5% Methylcellulose (aqueous solution containing 0.4% Tween 80 and 1% ethanol). Preparation of the solution for intragastrical administration: accurately weigh the compound, add it to the solvent, and use ultrasound at room temperature for 5 minutes to completely dissolve the drug, and prepare a 0.3 mg/ml medicinal solution.
(§8) A single administration was also used to study the pharmacokinetics of the drug sample in rats.
(§9) After intragastrical administration, blood was taken from the orbit at 0.25, 0.5, 1, 2, 4, 9, 12 and 24 hours, and placed in a plastic centrifuge tube pretreated with sodium heparin. After centrifugation, the supernatant plasma was used for LC-MS/MS analysis.
(§10) Accurately weigh the compounds to prepare different concentrations, perform quantitative analysis on mass spectrometry to establish a standard curve, and then test the concentration of the above-mentioned compound in the plasma to obtain the compound concentration at different time points. All measurement data are collected and processed by relevant software, and the statistical moment method is used to calculate the pharmacokinetic parameters (mainly including kinetic parameters Tmax, T1/2, Cmax, AUClast etc).

[8] = in vivo; conditions: male, SD, rat, po, 3 mg/kg
Experimental: as §5, §6, §7, §8, §9, §10

[9] = biological target: CDK2/CycA2 (Homo sapiens, UniProt P24941); test: CDK2 kinase activity inhibition assay (caliper mobility shift); type: biochemical; conditions: CDK2/CycA2 12 nM, ATP 39 μM; read-out: CDK2 kinase inhibitory activity (IC50)
Experimental: as §1, §2

[10] = read-out: TRKA kinase inhibitory activity (IC50)

Sequence of CDK6/cycD3 (Q00534 whole entry): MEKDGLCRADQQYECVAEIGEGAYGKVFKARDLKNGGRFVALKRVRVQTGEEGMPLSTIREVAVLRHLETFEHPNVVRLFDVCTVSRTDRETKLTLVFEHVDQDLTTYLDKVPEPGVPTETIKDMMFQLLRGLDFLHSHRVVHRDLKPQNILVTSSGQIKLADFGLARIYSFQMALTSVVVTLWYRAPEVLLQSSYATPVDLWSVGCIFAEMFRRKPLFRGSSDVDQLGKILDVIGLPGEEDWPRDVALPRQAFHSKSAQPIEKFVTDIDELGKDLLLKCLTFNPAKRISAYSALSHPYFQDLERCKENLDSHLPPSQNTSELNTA
Sequence of CDK6/cycD3 (P30281 whole entry partner): as the sequence (P30281 whole entry partner) above

Row | IC50 [1] | IC50 [2] | IC50 [4] | IC50 [5] | IC50 [6] | half-life [7] | IC50 [9] | IC50 [3, 10] | AUC(0-t) [7] | Cmax [7] | Tmax [7] | Structure (SMILES) | IC50 [3] | AUC(0-t) [8] | Cmax [8] | Tmax [8]
1 | < 10 nM | < 100 nM | < 50 nM | < 10 nM | < 100 nM | 3.19 h | < 100 nM | < 10 nM | 1940 ng·h/mL | 133 ng/mL | 9.33 h | CC(=O)c1c(C)c2cnc(Nc3ccc4c(c3)OC[C@@H]3CN(C5CN(C)C5)CCN43)nc2n(C2CCCC2)c1=O [Compound 7S] | – | – | – | –
2 | < 10 nM | < 100 nM | < 20 nM | < 10 nM | < 100 nM | 10.7 h | < 100 nM | < 10 nM | 3770 ng·h/mL | 250 ng/mL | 12 h | CCN1CCC(N2CCN3c4ccc(Nc5ncc6c(C)c(C(C)=O)c(=O)n(C7CCCC7)c6n5)cc4OC[C@@H]3C2)CC1 [Compound 4S] | – | – | – | –

Row | Structure (SMILES) | IC50 [1] | IC50 [2] | IC50 [4] | IC50 [5] | IC50 [6] | half-life [7] | IC50 [9] | IC50 [3, 10] | AUC(0-t) [7] | Cmax [7] | Tmax [7] | IC50 [3] | AUC(0-t) [8] | Cmax [8] | Tmax [8]
3 | CC(=O)c1c(C)c2cnc(Nc3ccc4c(c3)OC[C@@H]3CN(C5CCN(C)CC5)CCN43)nc2n(C2CCCC2)c1=O [Compound 2S] | < 10 nM | < 50 nM | < 20 nM | < 10 nM | < 100 nM | > 12 h | < 100 nM | – | – | – | – | < 10 nM | 1910 ng·h/mL | 114 ng/mL | 13.3 h

Source: patent publication US12589092B2, “Polycyclic compound acting as kinase inhibitor” (HANGZHOU INNOGATE PHARMA CO., LTD., priority 2020, dated 2026)
